Results on one molecule are retold here after ChEMBL document CHEMBL6153037, “Developing dual-responsive quinolinium prodrugs of 8-hydroxyquinoline by harnessing the dual chelating sites” (Eur J Med Chem, 2025).

Structures are written as SMILES.

Data set [1] has as its system MCF-10A. The data set is described as follows: Induction of apoptosis in human MCF-10A cells assessed as late apoptotic cells at 1.2 uM incubated for 24 hrs by Annexin V-FITC/PI staining based flow cytometry (reference value: 3.13 %). The data set is classed as toxicity, cell-based. Background: Flow cytometry measures light scatter and fluorescence of single cells or particles in a stream.

The nature of data set [2]: Prodrug conversion in solution containing ONOO- assessed as 8-HQ release. The data set is classed as ADME.
Data set [3] in a line: Prodrug conversion in PBS at pH 7.4 containing H2O2 assessed as 4-hydroxybenzyl alcohol release by measuring retention time at 50 uM measured after 15 mins by HPLC analysis. The data set is classed as ADME. The conditions noted are these: buffer, pH 7.4, 0.25 h.
The subject of data set [4] is MCF-10A. The data set is described as follows: Inhibition of mitochondrial membrane potential in human MCF-10A cells assessed as decrease in ATP level at 0.4 to 0.8 uM incubated for 24 hrs by luminescence based analysis. Conditions: dose 0.4-0.8 µM. The data set is classed as toxicity, cell-based.
The subject of data set [5] is MDA-MB-231. The data set can be described thus: Induction of apoptosis in human MDA-MB-231 cells assessed as necrotic cells at 1.2 uM incubated for 24 hrs by Annexin V-FITC/PI staining based flow cytometry (reference value: 0.59 %). Type of data set: functional.
The subject of data set [6] is MCF-10A. The data set is described as follows: Induction of apoptosis in human MCF-10A cells assessed as early apoptotic cells at 0.4 uM incubated for 24 hrs by Annexin V-FITC/PI staining based flow cytometry (reference value: 2.96 %). Type of data set: toxicity, cell-based.
Data set [7] deals with MDA-MB-231. The data set can be described thus: Induction of apoptosis in human MDA-MB-231 cells assessed as late apoptotic cells at 1.2 uM incubated for 24 hrs by Annexin V-FITC/PI staining based flow cytometry (reference value: 5.81 %). The data set is classed as functional.
Data set [8] has as its system MDA-MB-231. The data set is described as follows: Antitumor activity against human MDA-MB-231 cells assessed as sphere-forming efficiency incubated for 6 hrs followed by medium replacement without compound measured after 6 days by microscopic analysis (reference value: 1.07 %). The data set is classed as functional.
For data set [9], the system named is MDA-MB-231. The data set can be described thus: Induction of apoptosis in human MDA-MB-231 cells assessed as viable cells at 0.8 uM incubated for 24 hrs by Annexin V-FITC/PI staining based flow cytometry (reference value: 86.2 %). The data set is classed as functional. Conditions: read-out: Activity.
Data set [10] relates to MDA-MB-231. The data set can be described thus: Cytotoxicity against CuCl2-treated human MDA-MB-231 cells assessed as inhibition of cell viability incubated for 48 hrs by MTT assay. The data set is classed as functional, cell-based. Conditions: MDA-MB-231, 48 h.
Data set [11] in a line: Toxicity in BALB/c nude mouse xenografted with human MDA-MB-231 cells assessed as body weight change at 10 to 20 mg/kg, iv administered every two days for 21 days. The data set is classed as organism-based. The conditions noted are these: in vivo, 504 h, dose 10-20 mg/kg, time 21 day. (In general: Xenograft models place foreign cells or tissue in a host animal.)
Data set [12] has as its system MDA-MB-231. The data set is described as follows: Induction of cell cycle arrest in human MDA-MB-231 cells assessed as accumulation at G0/G1 phase at 0.4 uM by PI staining based flow cytometry (reference value: 64.6 %). The data set is classed as functional.
Data set [13] relates to MCF-10A. The data set is described as follows: Induction of apoptosis in human MCF-10A cells assessed as early apoptotic cells at 0.8 uM incubated for 24 hrs by Annexin V-FITC/PI staining based flow cytometry (reference value: 2.96 %). The data set is classed as toxicity, cell-based.
Data set [14] deals with MCF-10A. The data set is described as follows: Induction of apoptosis in human MCF-10A cells assessed as necrotic cells at 0.8 uM incubated for 24 hrs by Annexin V-FITC/PI staining based flow cytometry (reference value: 1.38 %). Type of data set: toxicity, cell-based.
Data set [15] concerns MCF-10A. The data set is described as follows: Induction of apoptosis in human MCF-10A cells assessed as early apoptotic cells at 1.2 uM incubated for 24 hrs by Annexin V-FITC/PI staining based flow cytometry (reference value: 2.96 %). The data set is classed as toxicity, cell-based.
Data set [16] has as its system A549. The data set can be described thus: Cytotoxicity against CuCl2-treated human A549 cells assessed as inhibition of cell viability incubated for 48 hrs by MTT assay. The conditions noted are these: A549, 48 h. Type of data set: functional, cell-based. (Formazan colour is commonly taken as a measure of viable cells.)
The test system of data set [17] is MDA-MB-231. The data set is described as follows: Induction of apoptosis in human MDA-MB-231 cells assessed as late apoptotic cells at 0.8 uM incubated for 24 hrs by Annexin V-FITC/PI staining based flow cytometry (reference value: 5.81 %). The data set is classed as functional.
Data set [18] relates to MDA-MB-231. The data set can be described thus: Induction of cell cycle arrest in human MDA-MB-231 cells assessed as accumulation at G0/G1 phase at 0.8 uM by PI staining based flow cytometry (reference value: 64.6 %). Type of data set: functional.
For data set [19], the system named is MDA-MB-231. The data set is described as follows: Antitumor activity against human MDA-MB-231 cells xenografted in BALB/c nude mouse at 20 mg/kg, iv administered every two days for 21 days relative to control. The data set is classed as functional. The conditions noted are these: MDA-MB-231, 504 h, time 21 day, read-out: TGI.
Data set [20] deals with MDA-MB-231. The data set is described as follows: Induction of apoptosis in human MDA-MB-231 cells assessed as viable cells at 0.4 uM incubated for 24 hrs by Annexin V-FITC/PI staining based flow cytometry (reference value: 86.2 %). Conditions: read-out: Activity. Type of data set: functional.
The nature of data set [21]: Induction of apoptosis in human MCF-10A cells assessed as viable cells at 0.8 uM incubated for 24 hrs by Annexin V-FITC/PI staining based flow cytometry (reference value: 92.5 %). Type of data set: toxicity, cell-based. Conditions: read-out: Activity.
Data set [22] concerns MDA-MB-231. The data set can be described thus: Induction of apoptosis in human MDA-MB-231 cells assessed as early apoptotic cells at 1.2 uM incubated for 24 hrs by Annexin V-FITC/PI staining based flow cytometry (reference value: 7.39 %). Type of data set: functional.

As to `CC1(C)OB(c2ccc(C[n+]3cccc4cccc(O)c43)cc2)OC1(C)C.[Br-]`, the Activity is given as 3.73% in data set [1]; “Non-toxic” in data set [4]; 6.03% in data set [5]; 2% in data set [6]; 16.4% in data set [7]; 0.22% in data set [8]. Besides, the Activity result is reported as “Non-toxic” in data set [11]; 68.1% in data set [12]; 2.18% in data set [13]; 0.36% in data set [14]; 2.12% in data set [15]; 27.9% in data set [17]. Also, the Activity is 74.2% in data set [18] and 71% in data set [22]. The Drug metabolism entry in [2] is “metabolite_detected”. In data set [3], the Retention_time is recorded as 10.2 min. In addition, the viability at 0.8 µM in [9] came to 24.8%. The results for the IC50 in data set [10] and in data set [16] were 0.83 µM and 3.48 µM, respectively. The inhibition in vivo at 20 mg/kg in data set [19] stood at 63.1%. Also, in data set [20], the viability at 0.4 µM is 71.2%. Moreover, in data set [21], the viability at 24 h, 0.8 µM turned out to be 93.7%.

The IC50 is the point on the concentration scale where inhibition reaches its midpoint.
